Measured values published in patent US20140275511A1, “PURIFICATION OF […]” (priority 2013, published 2014).

Legend:
[1] = test system: Valley Fever (coccidioidomycosis); conditions: mouse, in vivo; cited from earlier work

C[C@@H]([C@H](N)C(=O)N[C@H](C(=O)O)[C@H]1O[C@@H](n2ccc(=O)[nH]c2=O)[C@H](O)[C@@H]1O)[C@H](O)c1ccc(O)cn1 [Nikkomycin Z]
stability of broth at pH 4: reasonably stable for at least a week
effectiveness at treating infected animals [1]: quite effective at treating infected animals
